Source: publication PMC12102759 (Protein Science : A Publication of the Protein Society, 2025)

Tested on: PABPC1 PABC
Type: binding, human
Settings: DMS-BM library, bait PABPC1 PABC, row aa = residue at this position; for DMS-derived PSSM value, position N12 / DMS-derived PSSM value, position N7 / DMS-derived PSSM value, position N5 / DMS-derived PSSM value (averaged), position N3 / DMS-derived PSSM value (averaged), position N10 / DMS-derived PSSM value (averaged), position N5 / DMS-derived PSSM value, position N10: N = wild type; for DMS-derived PSSM value, position L2 / DMS-derived PSSM value, position L4 / DMS-derived PSSM value (averaged), position L2: L = wild type; for DMS-derived PSSM value, position E10 / DMS-derived PSSM value (averaged), position E8: E = wild type; for DMS-derived PSSM value, position R14 / DMS-derived PSSM value, position R12 / DMS-derived PSSM value (averaged), position R12: R = wild type
[1] = prey ATXN2, peptide KSTLNPNAKEFNPRSF
[2] = prey ATXN2, peptide KSTLNPNAKEFNPRSF, P = wild type
[3] = prey ATXN2, peptide TLNPNAKEFNPRSFSQ
[4] = prey ATXN2, peptide KSTLNPNAKEFNPRSF, A = wild type
[5] = prey ATXN2, peptide KSTLNPNAKEFNPRSF, F = wild type
[6] = prey ATXN2, peptide KSTLNPNAKEFNPRSF, S = wild type
[7] = prey ATXN2, peptide KSTLNPNAKEFNPRSF, T = wild type
[8] = prey ATXN2, peptide TLNPNAKEFNPRSFSQ, K = wild type
[9] = prey ATXN2, TLNPNAKEFNPRSF(averaged) over the two overlapping peptides
[10] = prey ATXN2, TLNPNAKEFNPRSF(averaged) over the two overlapping peptides, P = wild type
[11] = prey ATXN2, TLNPNAKEFNPRSF(averaged) over the two overlapping peptides, A = wild type
[12] = prey ATXN2, TLNPNAKEFNPRSF(averaged) over the two overlapping peptides, F = wild type
[13] = prey ATXN2, peptide TLNPNAKEFNPRSFSQ, F = wild type

## KSTLNPNAKEFNPRSF N12R (KSTLNPNAKEFRPRSF)
[1]
  DMS-derived PSSM value, position N12: 0.008293

## KSTLNPNAKEFNPRSF P13S (KSTLNPNAKEFNSRSF)
[2]
  DMS-derived PSSM value, position P13: 0.02375

## TLNPNAKEFNPRSFSQ L2K (TKNPNAKEFNPRSFSQ)
[3]
  DMS-derived PSSM value, position L2: 0.001564

## KSTLNPNAKEFNPRSF N7A (KSTLNPAAKEFNPRSF)
[1]
  DMS-derived PSSM value, position N7: 0.01018

## KSTLNPNAKEFNPRSF
[4]
  DMS-derived PSSM value, position A8: 0.5804
[1]
  DMS-derived PSSM value, position E10: 0.1617
  DMS-derived PSSM value, position L4: 0.6837
  DMS-derived PSSM value, position N5: 0.9124
  DMS-derived PSSM value, position N7: 0.02963
  DMS-derived PSSM value, position N12: 0.02408
  DMS-derived PSSM value, position R14: 0.01898
[5]
  DMS-derived PSSM value, position F11: 0.393
  DMS-derived PSSM value, position F16: 0.06015
Prey ATXN2, peptide KSTLNPNAKEFNPRSF, K = wild type
  DMS-derived PSSM value, position K9: 0.008078
[2]
  DMS-derived PSSM value, position P6: 0.1132
  DMS-derived PSSM value, position P13: 0.007578
[6]
  DMS-derived PSSM value, position S2: 0.03631
  DMS-derived PSSM value, position S15: 0.05273
[7]
  DMS-derived PSSM value, position T3: 0.04565

## TLNPNAKEFNPRSFSQ K7V (TLNPNAVEFNPRSFSQ)
[8]
  DMS-derived PSSM value, position K7: 0.007815

## TLNPNAKEFNPRSF(averaged) N3Y (TLYPNAKEFNPRSF)
[9]
  DMS-derived PSSM value (averaged), position N3: 0.00806

## TLNPNAKEFNPRSFSQ R12E (TLNPNAKEFNPESFSQ)
[3]
  DMS-derived PSSM value, position R12: 0.01629

## TLNPNAKEFNPRSF(averaged) N10F (TLNPNAKEFFPRSF)
[9]
  DMS-derived PSSM value (averaged), position N10: 0.02798

## TLNPNAKEFNPRSF(averaged) R12P (TLNPNAKEFNPPSF)
[9]
  DMS-derived PSSM value (averaged), position R12: 0.006659

## TLNPNAKEFNPRSF(averaged) P4E (TLNENAKEFNPRSF)
[10]
  DMS-derived PSSM value (averaged), position P4: 0.0008442

## KSTLNPNAKEFNPRSF R14S (KSTLNPNAKEFNPSSF)
[1]
  DMS-derived PSSM value, position R14: 0.06387

## TLNPNAKEFNPRSF
[11]
  DMS-derived PSSM value (averaged), position A6: 0.4881
[9]
  DMS-derived PSSM value (averaged), position E8: 0.1343
  DMS-derived PSSM value (averaged), position L2: 0.5343
  DMS-derived PSSM value (averaged), position N3: 0.5964
  DMS-derived PSSM value (averaged), position N5: 0.0195
  DMS-derived PSSM value (averaged), position N10: 0.05544
  DMS-derived PSSM value (averaged), position R12: 0.02883
[12]
  DMS-derived PSSM value (averaged), position F9: 0.3018
  DMS-derived PSSM value (averaged), position F14: 0.06062
Prey ATXN2, TLNPNAKEFNPRSF(averaged) over the two overlapping peptides, K = wild type
  DMS-derived PSSM value (averaged), position K7: 0.01034
[10]
  DMS-derived PSSM value (averaged), position P4: 0.1195
  DMS-derived PSSM value (averaged), position P11: 0.04091
Prey ATXN2, TLNPNAKEFNPRSF(averaged) over the two overlapping peptides, S = wild type
  DMS-derived PSSM value (averaged), position S13: 0.05759
Prey ATXN2, TLNPNAKEFNPRSF(averaged) over the two overlapping peptides, T = wild type
  DMS-derived PSSM value (averaged), position T1: 0.0418

## TLNPNAKEFNPRSFSQ A6S (TLNPNSKEFNPRSFSQ)
Prey ATXN2, peptide TLNPNAKEFNPRSFSQ, A = wild type
  DMS-derived PSSM value, position A6: 0.08307

## KSTLNPNAKEFNPRSF S15A (KSTLNPNAKEFNPRAF)
[6]
  DMS-derived PSSM value, position S15: 0.02636

## TLNPNAKEFNPRSFSQ K7R (TLNPNAREFNPRSFSQ)
[8]
  DMS-derived PSSM value, position K7: 0.00234

## KSTLNPNAKEFNPRSF R14G (KSTLNPNAKEFNPGSF)
[1]
  DMS-derived PSSM value, position R14: 0.105

## TLNPNAKEFNPRSF(averaged) F9M (TLNPNAKEMNPRSF)
[12]
  DMS-derived PSSM value (averaged), position F9: 0

## TLNPNAKEFNPRSFSQ F14E (TLNPNAKEFNPRSESQ)
[13]
  DMS-derived PSSM value, position F14: 0.02018

## KSTLNPNAKEFNPRSF P13A (KSTLNPNAKEFNARSF)
[2]
  DMS-derived PSSM value, position P13: 0.005231

## TLNPNAKEFNPRSFSQ S13H (TLNPNAKEFNPRHFSQ)
Prey ATXN2, peptide TLNPNAKEFNPRSFSQ, S = wild type
  DMS-derived PSSM value, position S13: 0.01388

## KSTLNPNAKEFNPRSF S2F (KFTLNPNAKEFNPRSF)
[6]
  DMS-derived PSSM value, position S2: 0.06555

## TLNPNAKEFNPRSF(averaged) R12H (TLNPNAKEFNPHSF)
[9]
  DMS-derived PSSM value (averaged), position R12: 0.1075

## TLNPNAKEFNPRSF(averaged) N3E (TLEPNAKEFNPRSF)
[9]
  DMS-derived PSSM value (averaged), position N3: 0

## KSTLNPNAKEFNPRSF S15K (KSTLNPNAKEFNPRKF)
[6]
  DMS-derived PSSM value, position S15: 0

## TLNPNAKEFNPRSF(averaged) L2Y (TYNPNAKEFNPRSF)
[9]
  DMS-derived PSSM value (averaged), position L2: 0.0552

## TLNPNAKEFNPRSF(averaged) R12A (TLNPNAKEFNPASF)
[9]
  DMS-derived PSSM value (averaged), position R12: 0.05134

## TLNPNAKEFNPRSF(averaged) F9S (TLNPNAKESNPRSF)
[12]
  DMS-derived PSSM value (averaged), position F9: 0

## TLNPNAKEFNPRSFSQ L2Q (TQNPNAKEFNPRSFSQ)
[3]
  DMS-derived PSSM value, position L2: 0

## TLNPNAKEFNPRSF(averaged) N5G (TLNPGAKEFNPRSF)
[9]
  DMS-derived PSSM value (averaged), position N5: 0.006922

## KSTLNPNAKEFNPRSF T3D (KSDLNPNAKEFNPRSF)
[7]
  DMS-derived PSSM value, position T3: 0.0007076

## KSTLNPNAKEFNPRSF F11I (KSTLNPNAKEINPRSF)
[5]
  DMS-derived PSSM value, position F11: 0

## KSTLNPNAKEFNPRSF P6L (KSTLNLNAKEFNPRSF)
[2]
  DMS-derived PSSM value, position P6: 0.1435

## KSTLNPNAKEFNPRSF T3P (KSPLNPNAKEFNPRSF)
[7]
  DMS-derived PSSM value, position T3: 0.005473

## TLNPNAKEFNPRSF(averaged) A6V (TLNPNVKEFNPRSF)
[11]
  DMS-derived PSSM value (averaged), position A6: 0.3197

## KSTLNPNAKEFNPRSF F11S (KSTLNPNAKESNPRSF)
[5]
  DMS-derived PSSM value, position F11: 0

## KSTLNPNAKEFNPRSF R14L (KSTLNPNAKEFNPLSF)
[1]
  DMS-derived PSSM value, position R14: 0.02501

## KSTLNPNAKEFNPRSF P6W (KSTLNWNAKEFNPRSF)
[2]
  DMS-derived PSSM value, position P6: 0

## KSTLNPNAKEFNPRSF N5W (KSTLWPNAKEFNPRSF)
[1]
  DMS-derived PSSM value, position N5: 0

## TLNPNAKEFNPRSFSQ N10H (TLNPNAKEFHPRSFSQ)
[3]
  DMS-derived PSSM value, position N10: 0.0229

## TLNPNAKEFNPRSFSQ R12G (TLNPNAKEFNPGSFSQ)
[3]
  DMS-derived PSSM value, position R12: 0.02158

## KSTLNPNAKEFNPRSF T3S (KSSLNPNAKEFNPRSF)
[7]
  DMS-derived PSSM value, position T3: 0

## KSTLNPNAKEFNPRSF P6G (KSTLNGNAKEFNPRSF)
[2]
  DMS-derived PSSM value, position P6: 0.01358

## KSTLNPNAKEFNPRSF L4A (KSTANPNAKEFNPRSF)
[1]
  DMS-derived PSSM value, position L4: 0

## KSTLNPNAKEFNPRSF E10M (KSTLNPNAKMFNPRSF)
[1]
  DMS-derived PSSM value, position E10: 0.002857

## TLNPNAKEFNPRSF(averaged) L2H (THNPNAKEFNPRSF)
[9]
  DMS-derived PSSM value (averaged), position L2: 0

## KSTLNPNAKEFNPRSF N5I (KSTLIPNAKEFNPRSF)
[1]
  DMS-derived PSSM value, position N5: 0

## KSTLNPNAKEFNPRSF A8K (KSTLNPNKKEFNPRSF)
[4]
  DMS-derived PSSM value, position A8: 0

## TLNPNAKEFNPRSFSQ N10D (TLNPNAKEFDPRSFSQ)
[3]
  DMS-derived PSSM value, position N10: 0.08868

## KSTLNPNAKEFNPRSF E10R (KSTLNPNAKRFNPRSF)
[1]
  DMS-derived PSSM value, position E10: 0

## TLNPNAKEFNPRSFSQ F14A (TLNPNAKEFNPRSASQ)
[13]
  DMS-derived PSSM value, position F14: 0.01754

## KSTLNPNAKEFNPRSF N7D (KSTLNPDAKEFNPRSF)
[1]
  DMS-derived PSSM value, position N7: 0.07378

## TLNPNAKEFNPRSFSQ F9M (TLNPNAKEMNPRSFSQ)
[13]
  DMS-derived PSSM value, position F9: 0

## TLNPNAKEFNPRSF(averaged) E8I (TLNPNAKIFNPRSF)
[9]
  DMS-derived PSSM value (averaged), position E8: 0.006482

## KSTLNPNAKEFNPRSF P13K (KSTLNPNAKEFNKRSF)
[2]
  DMS-derived PSSM value, position P13: 0

## KSTLNPNAKEFNPRSF E10I (KSTLNPNAKIFNPRSF)
[1]
  DMS-derived PSSM value, position E10: 0

## KSTLNPNAKEFNPRSF E10K (KSTLNPNAKKFNPRSF)
[1]
  DMS-derived PSSM value, position E10: 0.06317
